Results as given in ChEMBL document CHEMBL1146447, “Evaluation of the antifungal activity of natural xanthones from Garcinia mangostana and their synthetic derivatives” (1997).

Key:
Type in all cases: functional
[1] = tested on: Fusarium oxysporum f. sp. vasinfectum; assay: Antifungal activity against Fusarium oxysporum vasinfectum at 10 ppm after 144 hrs at 24 hrs intervals
Drechslera [2] = assay: Antifungal activity against Drechslera oryzae at 1 ppm after 168 hrs at 24 hrs intervals
Drechslera [3] = assay: Antifungal activity against Drechslera oryzae at 10 ppm after 168 hrs at 24 hrs intervals
[4] = tested on: Fusarium oxysporum f. sp. vasinfectum; assay: Antifungal activity against Fusarium oxysporum vasinfectum at 1 ppm after 144 hrs at 24 hrs intervals
Alternaria alternata [5] = assay: Antifungal activity against Alternaria tenuis at 100 ppm after 168 hrs at 24 hrs intervals
Drechslera [6] = assay: Antifungal activity against Drechslera oryzae at 1000 ppm after 168 hrs at 24 hrs intervals
Alternaria alternata [7] = assay: Antifungal activity against Alternaria tenuis at 1000 ppm after 168 hrs at 24 hrs intervals
[8] = tested on: Fusarium oxysporum f. sp. vasinfectum; assay: Antifungal activity against Fusarium oxysporum vasinfectum at 1000 ppm after 144 hrs at 24 hrs intervals
Drechslera [9] = assay: Antifungal activity against Drechslera oryzae at 100 ppm after 168 hrs at 24 hrs intervals
[10] = tested on: Fusarium oxysporum f. sp. vasinfectum; assay: Antifungal activity against Fusarium oxysporum vasinfectum at 100 ppm after 144 hrs at 24 hrs intervals
Alternaria alternata [11] = assay: Antifungal activity against Alternaria tenuis at 1 ppm after 168 hrs at 24 hrs intervals
Alternaria alternata [12] = assay: Antifungal activity against Alternaria tenuis at 10 ppm after 168 hrs at 24 hrs intervals

SMILES | inhibition at 10 ppm [1] | inhibition at 1 ppm (Drechslera [2]) | inhibition at 10 ppm (Drechslera [3]) | inhibition at 1 ppm [4] | inhibition at 100 ppm (Alternaria alternata [5]) | inhibition at 1000 ppm (Drechslera [6]) | inhibition at 1000 ppm (Alternaria alternata [7]) | inhibition at 1000 ppm [8] | inhibition at 100 ppm (Drechslera [9]) | inhibition at 100 ppm [10] | inhibition at 1 ppm (Alternaria alternata [11]) | inhibition at 10 ppm (Alternaria alternata [12])
CC(C)=CCc1c(O)cc2oc3cc(O)c(O)c(CC=C(C)C)c3c(=O)c2c1O | 6% | 5% | 35% | 0% | 33% | 85% | 58% | 64% | 81% | 50% | 1% | 9%
CCCOc1cc2oc3cc(OCCC)c(OC)c(CC=C(C)C)c3c(=O)c2c(O)c1CC=C(C)C | 5% | 8% | -25% | -4% | -2% | -10% | 1% | -2% | -36% | -6% | -6% | -3%
C=C(C)COc1cc2oc3cc(OCC(=C)C)c(OC)c(CC=C(C)C)c3c(=O)c2c(O)c1CC=C(C)C | 2% | -1% | -1% | 1% | 4% | 17% | -1% | 9% | -1% | 3% | -8% | -2%
S=c1c2ccccc2oc2ccccc12 | 4% | 11% | 5% | 2% | -22% | 10% | -32% | 6% | -11% | 4% | -6% | -12%
CC(C)=CCc1c(O)c(CC=C(C)C)c2oc3c(O)ccc(O)c3c(=O)c2c1O [GARTANIN] | 4% | 18% | 54% | 3% | 22% | 71% | 29% | 12% | 75% | 9% | 4% | 20%
COc1c(O)cc2oc3cc4c(c(O)c3c(=O)c2c1CC=C(C)C)CCC(C)(C)O4 | 8% | 29% | 45% | 4% | 28% | 61% | 31% | 18% | 58% | 19% | 11% | 15%
CCCCOc1cc2oc3cc(OCCCC)c(OC)c(CC=C(C)C)c3c(=O)c2c(O)c1CC=C(C)C | -4% | -38% | -38% | -7% | -2% | -69% | -5% | -3% | -66% | -4% | 1% | 4%
COc1cc2oc3cc(OC)c(OC)c(CC=C(C)C)c3c(=O)c2c(O)c1CC=C(C)C | 12% | 7% | 9% | 5% | 16% | 41% | 16% | 17% | 27% | 16% | 14% | 22%
CCOc1cc2oc3cc(OCC)c(OC)c(CC=C(C)C)c3c(=O)c2c(O)c1CC=C(C)C | -2% | -72% | -34% | -3% | -11% | -57% | -1% | -1% | -31% | -3% | -4% | 4%
C=CCOc1cc2oc3cc(OCC=C)c(OC)c(CC=C(C)C)c3c(=O)c2c(O)c1CC=C(C)C | 1% | -19% | -18% | 0% | 8% | -34% | 42% | 1% | -4% | 4% | -22% | -13%
O=c1c2ccccc2oc2ccccc12 [XANTHONE] | 8% | 19% | 29% | -2% | -6% | 3% | -14% | 6% | 34% | 1% | -43% | 5%
COc1c(O)cc2oc3cc(O)c(CC=C(C)C)c(O)c3c(=O)c2c1CC=C(C)C [MANGOSTIN] | 22% | 55% | 51% | 11% | 39% | 53% | 41% | 24% | 54% | 29% | 17% | 38%
CC1(C)CCc2c(cc3oc4cc(O)c5c(c4c(=O)c3c2O)CCC(C)(C)O5)O1 [BR-XANTHONE A] | 0% | 27% | 28% | 3% | 15% | 36% | 14% | 3% | 31% | 0% | 14% | 18%
COc1c(OC(C)C)cc2oc3cc(OC(C)C)c(CC=C(C)C)c(O)c3c(=O)c2c1CC=C(C)C | 1% | -1% | 4% | 3% | -1% | 9% | 1% | 3% | 1% | 4% | -10% | 2%
COc1c(OC(C)=O)cc2oc3cc(OC(C)=O)c(CC=C(C)C)c(O)c3c(=O)c2c1CC=C(C)C | 5% | 11% | 51% | 6% | 6% | 14% | -6% | 3% | 11% | 4% | 8% | 6%
COc1c(O)cc2oc3cc(O)c(CC=C(C)C)c(O)c3c(=O)c2c1CCC(C)(C)O [GARCINONE D] | 10% | 27% | 30% | -1% | -11% | 64% | 26% | 41% | 43% | 12% | -7% | 2%
